Experimental data reported in PMC9948168, “Vanillin-Based Indolin-2-one Derivative Bearing a Pyridyl Moiety as a Promising Anti-Breast Cancer Agent via Anti-Estrogenic Activity” (ACS Omega, 2023).

How the values were obtained:
Assay in all cases: NCI-60 one-dose screening
Format in all cases: cell-based
SW-620 = details: Homo sapiens, SW-620, Colon Cancer, read-out: GI (%)
A549/ATCC = details: Homo sapiens, Non-Small Cell Lung Cancer, read-out: GI (%)
HL-60(TB) = details: Homo sapiens, Leukemias, read-out: GI (%)
HCT-15 = details: Homo sapiens, HCT-15, Colon Cancer, read-out: GI (%)
COLO 205 = details: Homo sapiens, COLO 205, Colon Cancer, read-out: GI (%)
MCF7 = details: Homo sapiens, MCF7, 10 μM; MCF7, Breast Cancer; read-out: GI (%)
OVCAR-5 = details: Homo sapiens, OVCAR-5, Ovarian Cancer, read-out: GI (%)
SK-OV-3 = details: Homo sapiens, SK-OV-3, Ovarian Cancer, read-out: GI (%)
SK-MEL-2 = details: Homo sapiens, SK-MEL-2, Melanoma, read-out: GI (%)
UACC-257 = details: Homo sapiens, UACC-257, Melanoma, read-out: GI (%)
BT-549 = details: Homo sapiens, BT-549, Breast Cancer, read-out: GI (%)
SNB-19 = details: Homo sapiens, SNB-19, CNS Cancer, read-out: GI (%)
MOLT-4 = details: Homo sapiens, MOLT-4, Leukemias, read-out: GI (%)
MDA-MB-435 = details: Homo sapiens, MDA-MB-435, Melanoma, read-out: GI (%)
A498 = details: Homo sapiens, A498, Renal Cancer, read-out: GI (%)
NCI-H322M = details: Homo sapiens, Non-Small Cell Lung Cancer, read-out: GI (%)
TK-10 = details: Homo sapiens, TK-10, Renal Cancer, read-out: GI (%)
NCI-H226 = details: Homo sapiens, NCI-H226, Non-Small Cell Lung Cancer, read-out: GI (%)
K-562 = details: Homo sapiens, K562, K-562, Leukemias, read-out: GI (%)
OVCAR-4 = details: Homo sapiens, OVCAR-4, 10 μM; OVCAR-4, Ovarian Cancer; read-out: GI (%)
ACHN = details: Homo sapiens, Renal Cancer, read-out: GI (%)
CCRF-CEM = details: Homo sapiens, Leukemias, read-out: GI (%)

Compound | inhibition at 10 µM (SW-620) | inhibition at 10 µM (A549/ATCC) | inhibition at 10 µM (HL-60(TB)) | inhibition at 10 µM (HCT-15) | inhibition at 10 µM (COLO 205) | inhibition at 10 µM (MCF7) | inhibition at 10 µM (OVCAR-5) | inhibition at 10 µM (SK-OV-3) | inhibition at 10 µM (SK-MEL-2) | inhibition at 10 µM (UACC-257) | inhibition at 10 µM (BT-549) | inhibition at 10 µM (SNB-19) | inhibition at 10 µM (MOLT-4) | inhibition at 10 µM (MDA-MB-435) | inhibition at 10 µM (A498) | inhibition at 10 µM (NCI-H322M) | inhibition at 10 µM (TK-10) | inhibition at 10 µM (NCI-H226) | inhibition at 10 µM (K-562) | inhibition at 10 µM (OVCAR-4) | also measured
COc1cc(C=C2C(=O)Nc3ccccc32)ccc1OCc1ccccc1 (mixture of isomers) [6a] | 9.55% | -9.96% | -10.5% | 12.2% | -17.8% | 35.7% | -2.62% | -10.3% | -10.6% | -21.2% | 1.2% | 0.53% | 1.73% | -3.92% | -0.19% | 5.18% | -40.3% | -0.06% | 3.5% | 3.22% | inhibition at 10 µM (ACHN): 6.95%; inhibition at 10 µM (CCRF-CEM): 9.45%
COc1cc(C=C2C(=O)Nc3ccccc32)ccc1OCc1ccccn1 (mixture of isomers) [6e] | -0.45% | -7.19% | 13% | 20% | -16% | 50 to 65% | -3.35% | -2% | -1.21% | -10.9% | -6.45% | 9.82% | 12.5% | -7.05% | 22.2% | 8.2% | -51.2% | 6.29% | 19.6% | 8.74% | inhibition at 10 µM (ACHN): 9.08%; inhibition at 10 µM (CCRF-CEM): 8.27%
COc1cc(C=C2C(=O)Nc3cc(Cl)ccc32)ccc1OCc1ccc(Cl)cc1 (mixture of isomers) [6l] | 2.57% | -5.86% | -11.5% | 6.77% | -13.1% | 50 to 65% | -2.97% | -0.69% | -8.37% | -8.7% | 6.99% | -5.43% | 6.35% | -5.52% | 5.41% | 4.89% | -59.6% | 4.89% | 9.88% | 25.6% | inhibition at 10 µM (ACHN): 7.13%; inhibition at 10 µM (CCRF-CEM): 3.42%
COc1cc(/C=C2/C(=O)Nc3ccccc32)ccc1OCc1ccc(Cl)cc1 [6b] | 3.4% | -7.18% | -13.4% | 6.05% | -16.1% | 30.5% | -0.58% | -10.5% | -5.45% | -24.7% | -9.1% | 2.91% | 6.07% | -6.4% | -15.1% | 0.35% | -35.9% | 3.35% | 1.45% | 0.89% | inhibition at 10 µM (ACHN): 7.31%; inhibition at 10 µM (CCRF-CEM): 5.07%
COc1cc(/C=C2/C(=O)Nc3ccccc32)ccc1OCc1ccc(F)cc1 [6c] | -5.55% | -7.83% | -15.2% | -1.14% | -11.2% | 12.2% | -6.64% | -14.1% | -7.35% | -18.2% | -15.7% | 0.68% | 3.23% | -3.45% | 10.8% | -3.28% | -29.6% | -0.42% | -3.95% | -2.67% | inhibition at 10 µM (ACHN): -2.09%; inhibition at 10 µM (CCRF-CEM): -2.41%
COc1ccc(COc2ccc(/C=C3/C(=O)Nc4ccccc43)cc2OC)cc1 [6d] | 0.87% | -9.19% | -14.7% | -4.57% | -22.9% | 6% | 0.08% | -19.1% | -8.22% | -15.9% | 7.88% | 2.66% | -1.85% | -6.21% | -10.3% | -5.76% | -13.4% | -3.18% | -0.85% | 0.17% | inhibition at 10 µM (ACHN): 7.61%; inhibition at 10 µM (CCRF-CEM): -3.81%
COc1cc(/C=C2/C(=O)Nc3cc(Cl)ccc32)ccc1OCc1ccccc1 [6k] | 2.54% | -8.61% | -20.2% | 6.47% | -16.6% | 31% | 3.05% | -10.9% | -5.05% | -10.4% | 16.8% | 1.7% | 4.75% | -4.45% | -15.1% | 0.99% | -55.6% | 1.98% | 3.86% | 10.4% | inhibition at 10 µM (ACHN): 7.71%; inhibition at 10 µM (CCRF-CEM): -1.12%
COc1cc(/C=C2/C(=O)Nc3cc(Cl)ccc32)ccc1OCc1ccc(F)cc1 [6m] | 1.76% | -9.5% | -20.4% | 10.9% | -10.2% | 42.9% | 1.44% | 2.75% | 0.15% | -9.31% | 4.26% | -3.75% | -0.43% | -3.13% | 5.75% | 1.78% | -85.2% | 8.79% | 2.33% | 16.8% | inhibition at 10 µM (ACHN): 6.43%
COc1ccc(COc2ccc(/C=C3/C(=O)Nc4cc(Cl)ccc43)cc2OC)cc1 [6n] | 3.63% | -12.9% | -13.9% | 0.12% | -11.1% | 24% | 2.3% | -7.5% | -0.29% | -21.9% | 0.06% | 1.46% | 0.87% | -5.13% | 6.39% | 3.24% | -64.4% | 6.67% | -2.8% | 17.6% | inhibition at 10 µM (ACHN): 5.82%; inhibition at 10 µM (CCRF-CEM): 5.65%
COc1cc(/C=C2/C(=O)Nc3cc(Cl)ccc32)ccc1OCc1ccccn1 [6o] | 0.42% | -15.6% | -17.3% | 7.58% | -18.8% | 27.7% | 2.11% | -7.09% | -8.06% | -22.8% | 3.31% | -1.66% | 3.45% | -6.9% | -7.62% | 0.51% | -69.3% | 5.24% | 8.79% | 3.45% | inhibition at 10 µM (ACHN): 5.07%; inhibition at 10 µM (CCRF-CEM): -8.83%
